Data set [1] has as its target Nitric oxide synthase, inducible (Homo sapiens, UniProt P35228). In words: Inhibition of iNOS (unknown origin).
Data set [2] concerns the target Aldo-keto reductase family 1 member B1 (Homo sapiens, UniProt P15121). In words: Inhibition of aldose reductase (unknown origin) using DL-glyceraldehyde as substrate.
For another data set, the system named is NCI-H23. In words: Anti-cancer activity against human NCI-H23 cells. In kind it is functional, cell-based.
A short description of data set [3]: Antioxidant activity assessed as DPPH radical scavenging activity incubated for 30 mins by spectrophotometric analysis. In kind it is functional. In general terms: The DPPH test is a chemical assay of radical scavenging.
In the next data set the test system is HL-60. The data set is described as follows: Anti-cancer activity against human HL-60 cells. In kind it is functional, cell-based.
For the next data set, the system named is FaDu. In words: Cytotoxicity against human FaDu cells assessed as cell viability incubated for 24 hrs by CCK-8 assay. In kind it is functional, cell-based.
In the next data set the test system is THP-1. The data set is described as follows: Anti-cancer activity against human THP-1 cells. In kind it is functional, cell-based.
Data set [4] deals with RAW264.7. In words: Antiinflammatory activity in mouse RAW264.7 cells assessed as inhibition of H2O2-induced intracellular ROS production at 50 ug/ml measured after 24 hrs by DCFH-DA staining based fluorescence assay. In kind it is functional.
Data set [5] concerns RAW264.7. In words: Antiinflammatory activity in mouse RAW264.7 cells assessed as inhibition of LPS-induced NO production at 50 ug/ml measured after 24 hrs. In kind it is functional.
Data set [6] concerns RAW264.7. In words: Antiinflammatory activity in mouse RAW264.7 cells assessed as inhibition of LPS-induced TNFalpha secretion at 50 ug/ml measured after 24 hrs. In kind it is functional.
Data set [7] relates to HepG2. In words: Cytotoxicity against human HepG2 cells assessed as cell viability incubated for 72 hrs by MTT assay. The following applies: HepG2, 72 h. In kind it is functional, cell-based.
Another data set relates to MDA-MB-231. The data set is described as follows: Cytotoxicity against human MDA-MB-231 cells assessed as cell viability incubated for 72 hrs by MTT assay. In kind it is functional, cell-based. To be noted: MDA-MB-231, 72 h. For orientation: Tetrazolium dyes change colour on reduction, which living cells bring about.
A further data set deals with HT-29. In words: Cytotoxicity against human HT-29 cells assessed as cell viability incubated for 72 hrs by MTT assay. In kind it is functional, cell-based. The following applies: HT-29, 72 h.
The target in the next data set is Alpha amylase (Homo sapiens, UniProt P0DUB6). The data set is described as follows: Inhibition of alpha-amylase (unknown origin) by HPLC analysis.
Alpha amylase, sequence (P0DUB6 whole entry): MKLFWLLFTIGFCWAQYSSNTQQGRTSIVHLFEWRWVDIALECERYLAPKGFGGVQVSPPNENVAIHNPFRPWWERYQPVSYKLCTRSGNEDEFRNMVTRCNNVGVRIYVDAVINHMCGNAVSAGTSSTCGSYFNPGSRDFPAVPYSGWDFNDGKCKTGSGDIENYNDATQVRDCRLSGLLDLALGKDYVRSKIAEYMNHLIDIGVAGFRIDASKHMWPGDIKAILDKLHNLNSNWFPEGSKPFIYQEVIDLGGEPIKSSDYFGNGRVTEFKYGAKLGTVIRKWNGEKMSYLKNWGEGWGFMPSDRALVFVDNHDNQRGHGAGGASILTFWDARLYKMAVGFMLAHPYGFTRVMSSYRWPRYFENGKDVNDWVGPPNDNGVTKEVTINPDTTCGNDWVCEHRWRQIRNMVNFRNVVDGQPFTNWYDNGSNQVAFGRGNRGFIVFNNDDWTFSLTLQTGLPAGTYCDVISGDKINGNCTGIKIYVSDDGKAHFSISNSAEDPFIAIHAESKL
For data set [8], the system named is PC-12. The data set is described as follows: Neurotrophic activity in rat PC-12 cells assessed as induction of NGF-mediated neurite outgrowth at 10 uM measured after 72 hrs relative to control. In kind it is functional.
The next data set has as its system NCI-H292. In words: Anti-cancer activity against human NCI-H292 cells. In kind it is functional, cell-based.
Data set [9] deals with PC-12. The data set is described as follows: Neuroprotection against Amyloid beta (25 to 35)-induced toxicity in rat PC-12 cells assessed as increase in cell viability at 50 uM for 24 hrs by MTT assay relative to control. In kind it is functional.
Data set [10] concerns NCI-H460. The data set is described as follows: Cytotoxicity against human NCI-H460 cells assessed as cell viability by MTT assay. In kind it is functional, cell-based.
Data set [11] has as its system PC-12. In words: Neuroprotection against Amyloid beta (25 to 35)-induced toxicity in rat PC-12 cells assessed as increase in cell viability at 10 uM for 24 hrs by MTT assay relative to control. In kind it is functional.
A short description of data set [12]: Permeability of the compound by PAMPA-BBB assay. In kind it is ADME. To be noted: read-out: permeability. Background: The PAMPA barrier holds no transporters, so it reflects passive diffusion.
In data set [13] the test system is PC-12. The data set is described as follows: Neuroprotection against Amyloid beta (25 to 35)-induced toxicity in rat PC-12 cells assessed as increase in cell viability at 25 uM for 24 hrs by MTT assay relative to control. In kind it is functional.
The subject of data set [14] is RAW264.7. In words: Antiinflammatory activity in mouse RAW264.7 cells assessed as inhibition of LPS-induced NO production at 25 uM measured after 24 hrs. In kind it is functional.
Data set [15] has as its target Tyrosine-protein phosphatase non-receptor type 1 (Homo sapiens, UniProt P18031). The data set is described as follows: Inhibition of PTP1B (unknown origin).
In another data set the test system is T-24. The data set is described as follows: Anti-cancer activity against human T24 cells. In kind it is functional, cell-based.
Data set [16] deals with MCF7. In words: Cytotoxicity against human MCF7 cells assessed as cell viability incubated for 48 hrs by MTS assay. The following applies: MCF7, 48 h. In kind it is functional, cell-based.
The next data set relates to Bel-7402. In words: Anti-cancer activity against human Bel-7402 cells. In kind it is functional, cell-based.
A further data set concerns NCI-H187. In words: Anti-cancer activity against human NCI-H187 cells. In kind it is functional, cell-based.
In a further data set the test system is SGC-7901. In words: Anti-cancer activity against human SGC-7901 cells. In kind it is functional, cell-based.
In data set [17] the test system is HepG2. In words: Anti-cancer activity against human HepG2 cells. In kind it is functional, cell-based.
Data set [18] has as its system NCI-H460. In words: Anti-cancer activity against human NCI-H460 cells. In kind it is functional, cell-based.
Another data set deals with KB. In words: Anti-cancer activity against human KB cells. In kind it is functional, cell-based.
The next data set has as its system K562. In words: Anti-cancer activity against human K562 cells. In kind it is functional, cell-based.
For data set [19], the system named is MCF7. In words: Anti-cancer activity against human MCF7 cells. In kind it is functional, cell-based.

The structures appear in SMILES notation.

Tyrosine-protein phosphatase non-receptor type 1, sequence (P18031 whole entry): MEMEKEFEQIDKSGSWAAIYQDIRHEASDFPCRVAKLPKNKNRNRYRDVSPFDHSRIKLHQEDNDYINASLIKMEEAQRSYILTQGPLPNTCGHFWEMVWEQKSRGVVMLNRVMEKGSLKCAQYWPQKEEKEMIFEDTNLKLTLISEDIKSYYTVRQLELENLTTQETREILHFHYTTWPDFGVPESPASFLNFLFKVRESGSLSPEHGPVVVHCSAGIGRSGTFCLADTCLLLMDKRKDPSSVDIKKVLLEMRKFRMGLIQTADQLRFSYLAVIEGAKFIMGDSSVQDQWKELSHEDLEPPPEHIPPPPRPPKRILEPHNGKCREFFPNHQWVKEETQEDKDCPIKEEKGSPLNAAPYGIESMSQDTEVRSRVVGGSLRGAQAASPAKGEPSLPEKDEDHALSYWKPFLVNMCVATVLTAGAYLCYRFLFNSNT
Nitric oxide synthase, inducible, sequence (P35228 whole entry): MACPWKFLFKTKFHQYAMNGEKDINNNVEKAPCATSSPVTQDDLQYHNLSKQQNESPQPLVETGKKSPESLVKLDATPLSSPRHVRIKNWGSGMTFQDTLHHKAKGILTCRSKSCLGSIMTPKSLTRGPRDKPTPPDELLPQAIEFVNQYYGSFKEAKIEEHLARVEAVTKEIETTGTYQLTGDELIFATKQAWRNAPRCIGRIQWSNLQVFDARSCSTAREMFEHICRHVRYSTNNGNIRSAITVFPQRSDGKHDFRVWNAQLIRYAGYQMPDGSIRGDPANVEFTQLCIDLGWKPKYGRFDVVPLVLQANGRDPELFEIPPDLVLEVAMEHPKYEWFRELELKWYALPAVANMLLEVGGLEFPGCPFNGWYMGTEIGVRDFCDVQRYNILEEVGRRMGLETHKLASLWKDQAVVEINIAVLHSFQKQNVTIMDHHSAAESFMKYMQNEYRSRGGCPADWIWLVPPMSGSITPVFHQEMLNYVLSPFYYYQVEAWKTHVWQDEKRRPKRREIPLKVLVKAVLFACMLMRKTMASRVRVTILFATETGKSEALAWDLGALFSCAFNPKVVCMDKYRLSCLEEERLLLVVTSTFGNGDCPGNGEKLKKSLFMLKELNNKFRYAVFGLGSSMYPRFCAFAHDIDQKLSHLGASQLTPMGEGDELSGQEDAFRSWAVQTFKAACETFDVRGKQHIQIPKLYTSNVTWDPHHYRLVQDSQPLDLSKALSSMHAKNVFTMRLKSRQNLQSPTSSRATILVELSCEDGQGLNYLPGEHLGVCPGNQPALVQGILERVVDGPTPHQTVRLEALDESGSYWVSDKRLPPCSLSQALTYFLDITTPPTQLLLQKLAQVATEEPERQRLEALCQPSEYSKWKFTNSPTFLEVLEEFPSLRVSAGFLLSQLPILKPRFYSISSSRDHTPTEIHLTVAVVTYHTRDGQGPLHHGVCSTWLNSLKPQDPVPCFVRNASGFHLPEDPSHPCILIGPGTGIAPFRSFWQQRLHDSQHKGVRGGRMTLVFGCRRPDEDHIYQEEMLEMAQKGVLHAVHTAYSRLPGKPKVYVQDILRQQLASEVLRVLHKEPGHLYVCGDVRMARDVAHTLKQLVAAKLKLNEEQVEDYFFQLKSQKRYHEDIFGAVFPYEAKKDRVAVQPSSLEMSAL

The term IC50 denotes the concentration that inhibits the measured activity by half. Regarding `COc1cc(O)cc(CCc2ccc(O)c(O)c2)c1`, the concentration for half-maximal inhibition (IC50) was determined as 680 µM in data set [1] and 176 µM in [2].

In the case of `COc1cc(CCc2cc(OC)c(O)c(OC)c2)ccc1O` [MOSCATILIN], the half-maximal inhibitory concentration (IC50) with NCI-H23 was found to be 33.4 µM; in [3], 17.1 µM; in the data set on HL-60, 0.082 µM; in the data set with FaDu it was 2.55 µM; in the data set with THP-1, 226 µM.

Broadly, the inhibition is how much of the control response was suppressed. For the compound `COc1cc(CC2c3cc(O)c(O)c(OC)c3Oc3cc(O)c4c(c32)CCc2cc(O)ccc2-4)ccc1O` (configuration not stated), the inhibition at 50 µg/mL in the data set with RAW264.7 [4] is 65%; in the data set on RAW264.7 [5], 65%; in the data set on RAW264.7 [6], 70%.

As to `COc1cccc(CCc2ccc(O)c(O)c2)c1O`, the IC50 came to 434 µM in [1] and 126 µM in data set [2].

For `COc1ccc(CC2c3cc(O)c(O)c(OC)c3Oc3cc(O)c4c(c32)CCc2cc(O)ccc2-4)cc1` (configuration not stated), the IC50 with HepG2 [7] was found to be 51.3 µM; with MDA-MB-231 it was 25.2 µM; in the data set with HT-29, 30.4 µM.

Turning to `COc1ccc(CCc2cc(O)c(O)c(OC)c2)cc1`, the half-maximal inhibitory concentration (IC50) in the data set on HepG2 [7] was 138 µM; in the data set with MDA-MB-231 it was 80.5 µM; in the data set with HL-60, 10.7 µM; in the data set on HT-29 it was 88.2 µM; at Alpha amylase, 5990 µM.

As to `COc1cc(CCc2ccc(O)cc2)cc(OC)c1O`, in the data set on PC-12 [8], the Activity amounted to 6.94%. In the data set with NCI-H292, it took 198 µM to reach half-maximal inhibition (IC50).

For the compound `COc1ccc(CCc2cc(OC)c(O)c(OC)c2)cc1OC`, the IC50 in the data set on NCI-H23 was found to be 145 µM; in [3] it was 14 µM; with NCI-H460 [10] it was 127 µM. For the same compound, the Activity turned out to be 58.89% with PC-12 [9], 52.72% with PC-12 [11] and 55.02% with PC-12 [13]. For the same compound, the Papp in [12] was 41 nm/s.

As to `COc1cc(CCc2cc(O)cc(O)c2)ccc1O` [TRISTIN], in the data set on RAW264.7 [14], the inhibition at 25 µM is 27.2%. The 50% inhibitory concentration (IC50) came to 29.1 µM with HL-60, 21.2 µM in data set [15] and 13.5 µM in the data set with THP-1.

`COc1ccc(CCc2cc(OC)c(OC)c(OC)c2)cc1O`: the 50% inhibitory concentration (IC50) in the data set with T-24 stood at 0.46 µM.

For `COc1cc(CCc2cc(O)c(O)c(OC)c2)ccc1O`, in the data set on NCI-H292, the IC50 worked out at 96.6 µM.

Regarding `COc1ccc(CCc2cc3c(c(OC)c2)C[C@@H](CO)[C@H](c2ccc(O)c(OC)c2)C3)cc1`, in the data set on MCF7 [16], the 50% inhibitory concentration (IC50) amounted to 38.5 µM.

As for `COc1ccc(CCc2cc(OC)c3c(c2)O[C@H](c2cc(O)c(O)c(OC)c2)[C@@H](c2ccc(OC)cc2)O3)cc1`, the IC50 in the data set with HepG2 [7] was found to be 89.7 µM; with MDA-MB-231 it was 42.5 µM; in [3], 21.3 µM; in the data set on HT-29 it was 52 µM.

For the compound `COc1cc(O)cc(CCc2ccc(O)c(OC)c2)c1` [GIGANTOL], the concentration for half-maximal inhibition (IC50) in the data set with Bel-7402 is 13 µM; in data set [3] it was 17.7 µM; in the data set on NCI-H187, 235 µM; with SGC-7901 it was 17.4 µM; with HL-60, 10.6 µM; in the data set with HepG2 [17], 9.3 µM. For the same compound, the half-inhibitory concentration (IC50) was 76.9 µM in the data set on NCI-H460 [18]; 61.9 µM with KB; 63.9 µM in the data set with K562; 73.3 µM in data set [15]; 23.3 µM in the data set with THP-1; 67.8 µM in the data set with MCF7 [19].

These data come from ChEMBL document CHEMBL5244253, “Recent research progress on natural small molecule bibenzyls and its derivatives in Dendrobium species” (Eur J Med Chem, 2020).
